According to ChEMBL document CHEMBL5223068, “Novel thiobarbiturates as potent urease inhibitors with potential antibacterial activity: Design, synthesis, radiolabeling and biodistribution study” (Bioorg Med Chem, 2020):
Values after ≈ are worked out from the molar mass of the structure shown.

How the values were obtained:
Klebsiella pneumoniae [1] = test: Antibacterial activity against clinical isolate Klebsiella pneumoniae incubated for 18 to 24 hrs by broth microdilution assay; format: functional; conditions: time 18-24 hrs
Proteus vulgaris = test: Antibacterial activity against Proteus vulgaris ATCC 13315 incubated for 18 to 24 hrs by broth microdilution assay; format: functional; conditions: time 18-24 hrs
Klebsiella pneumoniae [2] = test: Antibacterial activity against Klebsiella pneumoniae ATCC 700603 incubated for 18 to 24 hrs by broth microdilution assay; format: functional; conditions: time 18-24 hrs
Proteus mirabilis = test: Antibacterial activity against clinical isolate Proteus mirabilis incubated for 18 to 24 hrs by broth microdilution assay; format: functional; conditions: time 18-24 hrs
[3] = Inhibition of urease (unknown origin) incubated for 30 mins by microplate reader based analysis
[4] = Drug uptake in Swiss albino muscle infected mouse kidney measured upto 180 mins; format: ADME, tissue-based; conditions: in vivo, 3 h
[5] = Biodistribution in Swiss albino muscle infected mouse assessed as ratio of infected muscle to normal muscle measured at all time intervals; format: ADME, organism-based, Muscle tissue; conditions: in vivo
[6] = Biodistribution in Swiss albino muscle infected mouse assessed as ratio of infected muscle to normal muscle measured after 30 mins post injection; format: ADME, organism-based, Muscle tissue; conditions: in vivo, 0.5 h
[7] = Inhibition of urease (unknown origin) assessed as reduction on ammonia production incubated for 15 mins by indophenol reagent based microplate reader assay
Escherichia coli = test: Antibacterial activity against Escherichia coli incubated for 24 to 48 hrs; format: functional; conditions: time 24-48 hrs

Row | Compound | MIC (Klebsiella pneumoniae [2]) [µg/mL] | IC50 [3] [µM] | other results
1 | CC1=C(C(=O)O)N2C(=O)[C@@H](NC(=O)[C@H](N)c3ccccc3)[C@H]2SC1 [CEPHALEXIN ANHYDROUS] | 125 (≈ 360 µM) |  | MIC (Klebsiella pneumoniae [1]): > 250 µg/mL; MIC (Proteus vulgaris): 125 µg/mL (≈ 360 µM); MIC (Proteus mirabilis): 125 µg/mL (≈ 360 µM)
2 | CCOC(=O)CC1C(=O)NC(=S)NC1=O | 62.5 (≈ 271 µM) | 10.1 | MIC (Klebsiella pneumoniae [1]): 31.2 µg/mL (≈ 136 µM); MIC (Proteus vulgaris): 31.2 µg/mL (≈ 136 µM)
3 | Cc1ccc(/C=N/NC(=O)CC2C(=O)NC(=S)NC2=O)cc1 |  | 67.7 | 
4 | COC(=O)c1ccc(NC(=O)CC2C(=O)NC(=S)NC2=O)cc1 |  | 22.9 | 
5 | CCCNC(=O)CC1C(=O)NC(=S)NC1=O |  | 11 | 
6 | O=C(CC1C(=O)NC(=S)NC1=O)Nc1ccc(F)cc1 |  | 44.3 | 
7 | NNC(=O)CC1C(=O)NC(=S)NC1=O | 125 (≈ 578 µM) | 60.3 | 
8 | CCOC(=O)/C(=C\N(C)C)C1C(=O)NC(=S)NC1=O | 31.2 (≈ 110 µM) | 13.6 | MIC (Klebsiella pneumoniae [1]): 62.5 µg/mL (≈ 219 µM); MIC (Proteus mirabilis): 15 µg/mL (≈ 52.6 µM)
9 | Cc1cccc(NC(=O)CC2C(=O)NC(=S)NC2=O)c1 |  | 76.5 | 
10 | Cc1ccc(NC(=O)CC2C(=O)NC(=S)NC2=O)c(C)c1 |  | 75.4 | 
11 | CC(C)CNC(=O)CC1C(=O)NC(=S)NC1=O |  | 16.9 | 
12 | O=C(CC1C(=O)NC(=S)NC1=O)N/N=C/c1ccccc1 |  | 54.4 | 
13 | O=C1NC(=S)NC(=O)C1CC(=O)N1CCOCC1 | 62.5 (≈ 230 µM) | 8.21 | MIC (Klebsiella pneumoniae [1]): 62.5 µg/mL (≈ 230 µM); Drug uptake [4]: Active; MIC (Proteus vulgaris): 62.5 µg/mL (≈ 230 µM); Ratio [5]: > 1; Ratio [6]: 3.72; MIC (Proteus mirabilis): 62.5 µg/mL (≈ 230 µM)
14 | NC(N)=S [THIOUREA] |  | 20 | IC50 [7]: ≤ 21.1 µM
15 | O=C(CC1C(=O)NC(=S)NC1=O)N/N=C/c1ccccc1O |  | 92.9 | 
16 | O=C(CC1C(=O)NC(=S)NC1=O)NCCNC(=O)CC1C(=O)NC(=S)NC1=O |  | 29.8 | MIC (Klebsiella pneumoniae [1]): 62.5 µg/mL (≈ 146 µM)
17 | NC(=O)NNC(=O)CC1C(=O)NC(=S)NC1=O | 31.2 (≈ 121 µM) | 27.1 | MIC (Klebsiella pneumoniae [1]): 62.5 µg/mL (≈ 241 µM); MIC (Proteus vulgaris): 16 µg/mL (≈ 61.7 µM)
18 | O=C(CC1C(=O)NC(=S)NC1=O)Nc1ccccc1 |  | 20.8 | 
19 | CCN1C(=O)C(C(c2ccccc2)C2C(=O)N(CC)C(=S)N(CC)C2=O)C(=O)N(CC)C1=S |  |  | IC50 [7]: 7.45 µM
20 | Cc1cccc(NC(=O)CC2C(=O)NC(=S)NC2=O)c1C |  | 71 | 
21 | O=C1C(C(=O)C(F)(F)F)C(=O)N(c2ccc(-c3ncc(-c4ccccc4)[nH]3)cc2)C(=S)N1c1ccc(Cl)cc1 (stereo unspecified) |  |  | MIC (Escherichia coli): ≤ 6.25 µg/mL
22 | Cc1ccccc1NC(=O)CC1C(=O)NC(=S)NC1=O |  | 52.1 | 
23 | O=C(CC1C(=O)NC(=S)NC1=O)OCc1ccccc1 | 125 (≈ 428 µM) | 74.7 | 
